This is an account of results in PubChem BioAssay (NCI).

Among the test systems are NCI-H522 lung; LOX IMVI melanoma; U251 CNS; SR leukemia; SNB-75 CNS; HOP-62 NSCLC; COLO 205 colon; SF-268 CNS; RXF 393 renal; SN12C renal.
Experiment in all cases: DTP human tumour cell line panel, 48 h

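Growth conditions: 96-well plates. Treatment: test compound, 48 hours, 5 concentrations. Analysis: linear interpolation between bracketing concentrations; unreached endpoints set to highest concentration. GI50 marks 50% less growth. At the TGI there is no net growth.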

For the molecule `COc1cc(Nc2cn[nH]c2-c2ccc(Cl)cc2)cc(OC)c1OC`, the GI50 (usually the concentration at which growth is held to half of that of the control) was 6.81 µM with NCI-H522 lung; 5.62 µM in the assay with LOX IMVI melanoma; 4.91 µM in the assay with U251 CNS; 2.23 µM in the assay with SR leukemia; 1.14 µM in the assay with SNB-75 CNS; 6.91 µM in the assay with HOP-62 NSCLC. For the same molecule, the GI50 in the assay on COLO 205 colon is 4.39 µM; in the assay on SF-268 CNS, 6.76 µM; with RXF 393 renal, 10.4 µM; in the assay on SN12C renal, 8.68 µM. For the same molecule, the total growth inhibition concentration (TGI) (as a rule, the concentration at which net growth stops) with NCI-H522 lung worked out at 37.5 µM; with LOX IMVI melanoma, 20.7 µM; in the assay on U251 CNS, 33.3 µM; in the assay with SR leukemia, 42.2 µM; with SNB-75 CNS, 7.66 µM; with HOP-62 NSCLC it was 44.5 µM. Also, the TGI in the assay on COLO 205 colon is 21.9 µM; in the assay with SF-268 CNS, above 70.5 µM; in the assay on RXF 393 renal, above 64.1 µM; in the assay on SN12C renal, above 100 µM.
In the case of `C=C(F)C(=O)N1CCN(c2nc(OC[C@@H]3CCCN3C)nc3c2CCN(c2cccc4cccc(Cl)c24)C3)C[C@@H]1CC#N`, the GI50 was 0.441 µM with NCI-H522 lung; 1.13 µM with LOX IMVI melanoma; 1.02 µM with U251 CNS; 0.657 µM with SR leukemia; 1.17 µM in the assay on SNB-75 CNS; below 0.01 µM with HOP-62 NSCLC. Besides, the GI50 with COLO 205 colon was 0.578 µM; with SF-268 CNS, 1.37 µM; in the assay on RXF 393 renal, 1.29 µM; in the assay on SN12C renal it was 1.31 µM. Further, the TGI with NCI-H522 lung came out at 1.73 µM; in the assay with LOX IMVI melanoma it was 2.47 µM; in the assay on U251 CNS, 2.21 µM; in the assay on SR leukemia, 2.6 µM; in the assay with SNB-75 CNS, 2.67 µM; with HOP-62 NSCLC it was 1.48 µM. The concentration for total growth inhibition (TGI) in the assay on COLO 205 colon was found to be 1.98 µM; in the assay on SF-268 CNS it was 3.37 µM; in the assay with RXF 393 renal it was 2.66 µM; with SN12C renal, 2.83 µM.
With `CC(=O)O.CC(=O)O.CC(=O)O.CC(=O)O.CC(=O)O.CC(=O)O.O.[Ti].[Ti]`, the GI50 was above 100 µM in the assay on NCI-H522 lung; above 100 µM in the assay on LOX IMVI melanoma; above 100 µM in the assay on U251 CNS; above 100 µM in the assay on SR leukemia; 56 µM in the assay on SNB-75 CNS; above 100 µM with HOP-62 NSCLC. In addition, the GI50 in the assay with COLO 205 colon, in the assay with SF-268 CNS, in the assay on RXF 393 renal and in the assay on SN12C renal was above 100 µM each time. The TGI in the assay with NCI-H522 lung, in the assay with LOX IMVI melanoma, in the assay on U251 CNS, in the assay on SR leukemia, in the assay with SNB-75 CNS and in the assay on HOP-62 NSCLC was above 100 µM in each case. The TGI in the assay on COLO 205 colon, with SF-268 CNS, in the assay with RXF 393 renal and in the assay with SN12C renal was above 100 µM each time.
With `O=C1NC(=Nc2ccccc2)S/C1=C\c1ccc2ncccc2c1`, the GI50 in the assay with NCI-H522 lung was above 12.3 µM; in the assay with LOX IMVI melanoma, above 25 µM; in the assay with U251 CNS, above 5.13 µM; in the assay on SR leukemia it was 0.64 µM; in the assay on HOP-62 NSCLC, 4.46 µM; in the assay with COLO 205 colon it was above 25 µM. Moreover, the GI50 was above 10.3 µM in the assay with SF-268 CNS, above 25 µM in the assay on RXF 393 renal and above 25 µM in the assay with SN12C renal. In addition, the TGI in the assay on NCI-H522 lung, in the assay on LOX IMVI melanoma, with U251 CNS, with SR leukemia, in the assay on SNB-75 CNS and in the assay on HOP-62 NSCLC was above 25 µM throughout. Besides, the TGI in the assay with COLO 205 colon, in the assay on SF-268 CNS, with RXF 393 renal and with SN12C renal was above 25 µM throughout.
On to `Cn1c(=O)c2c(nc(Nc3cc(=O)[nH]c(=O)[nH]3)n2Cc2ccccc2)n(C)c1=O`, for which the GI50 is above 100 µM with NCI-H522 lung; above 100 µM with LOX IMVI melanoma; above 100 µM in the assay with U251 CNS; above 100 µM in the assay with SR leukemia; 12.5 µM with SNB-75 CNS; above 100 µM in the assay on HOP-62 NSCLC. In addition, the GI50 in the assay on COLO 205 colon, with SF-268 CNS, in the assay with RXF 393 renal and in the assay with SN12C renal was above 100 µM each time. Also, the concentration for total growth inhibition (TGI) in the assay on NCI-H522 lung, in the assay on LOX IMVI melanoma, with U251 CNS, in the assay with SR leukemia, in the assay on SNB-75 CNS and in the assay on HOP-62 NSCLC was above 100 µM in each case. Moreover, the TGI in the assay with COLO 205 colon, in the assay with SF-268 CNS, with RXF 393 renal and in the assay with SN12C renal was above 100 µM throughout.
On to `O=C1c2ccccc2C(=O)C1(Cl)C1(S(=O)(=O)O)c2ccccc2-c2ccccc21`, for which the TGI in the assay with NCI-H522 lung, in the assay with LOX IMVI melanoma, in the assay on U251 CNS, in the assay on SR leukemia, in the assay with SNB-75 CNS and with HOP-62 NSCLC was above 100 µM in each case. Also, the total growth inhibition concentration (TGI) in the assay with COLO 205 colon, with SF-268 CNS, with RXF 393 renal and in the assay on SN12C renal was above 100 µM in each case.
Consider `COC(=O)/C=C/c1cc(O)c2oc(-c3ccc(O)c(O)c3)c(C(=O)OC)c2c1`, for which the GI50 with NCI-H522 lung was 0.0472 µM; in the assay on LOX IMVI melanoma it was 0.367 µM; with U251 CNS it was 0.606 µM; in the assay on SR leukemia, 0.039 µM; with SNB-75 CNS, 0.0376 µM; with HOP-62 NSCLC, 0.442 µM. Besides, the GI50 is 8.27 µM in the assay with COLO 205 colon, 1.52 µM in the assay with SF-268 CNS, 0.523 µM with RXF 393 renal and 0.576 µM with SN12C renal. For the same molecule, the TGI with NCI-H522 lung is 4.72 µM; with LOX IMVI melanoma it was 10.3 µM; with U251 CNS, 13.4 µM; with SR leukemia, above 24.3 µM; in the assay on SNB-75 CNS, 1.41 µM; in the assay with HOP-62 NSCLC, 12.7 µM. The concentration for total growth inhibition (TGI) in the assay with COLO 205 colon worked out at 23.6 µM; in the assay with SF-268 CNS it was 12.5 µM; in the assay on RXF 393 renal it was 4.84 µM; in the assay on SN12C renal it was 12.2 µM.
